Experimental findings from PMC6747455, “Active Site Architecture and Reaction Mechanism Determination of Cold Adapted β-D-galactosidase from Arthrobacter sp. 32cB” (International Journal of Molecular Sciences, 2019) are described below.

The target in test [1] is T1, ArthβDG (Arthrobacter sp. 32cB, UniProt A0A023UGN9).
T1 construct: recombinant, pBAD/Myc-His A vector (pBAD-Bgal32cB), E. coli LMG 194 host; ion exchange and size exclusion; five-domain protein, 110 kDa; functional dimer; GH2 family; catalytic residues E441 and E517
T1 sequence (A0A023UGN9 1-1010): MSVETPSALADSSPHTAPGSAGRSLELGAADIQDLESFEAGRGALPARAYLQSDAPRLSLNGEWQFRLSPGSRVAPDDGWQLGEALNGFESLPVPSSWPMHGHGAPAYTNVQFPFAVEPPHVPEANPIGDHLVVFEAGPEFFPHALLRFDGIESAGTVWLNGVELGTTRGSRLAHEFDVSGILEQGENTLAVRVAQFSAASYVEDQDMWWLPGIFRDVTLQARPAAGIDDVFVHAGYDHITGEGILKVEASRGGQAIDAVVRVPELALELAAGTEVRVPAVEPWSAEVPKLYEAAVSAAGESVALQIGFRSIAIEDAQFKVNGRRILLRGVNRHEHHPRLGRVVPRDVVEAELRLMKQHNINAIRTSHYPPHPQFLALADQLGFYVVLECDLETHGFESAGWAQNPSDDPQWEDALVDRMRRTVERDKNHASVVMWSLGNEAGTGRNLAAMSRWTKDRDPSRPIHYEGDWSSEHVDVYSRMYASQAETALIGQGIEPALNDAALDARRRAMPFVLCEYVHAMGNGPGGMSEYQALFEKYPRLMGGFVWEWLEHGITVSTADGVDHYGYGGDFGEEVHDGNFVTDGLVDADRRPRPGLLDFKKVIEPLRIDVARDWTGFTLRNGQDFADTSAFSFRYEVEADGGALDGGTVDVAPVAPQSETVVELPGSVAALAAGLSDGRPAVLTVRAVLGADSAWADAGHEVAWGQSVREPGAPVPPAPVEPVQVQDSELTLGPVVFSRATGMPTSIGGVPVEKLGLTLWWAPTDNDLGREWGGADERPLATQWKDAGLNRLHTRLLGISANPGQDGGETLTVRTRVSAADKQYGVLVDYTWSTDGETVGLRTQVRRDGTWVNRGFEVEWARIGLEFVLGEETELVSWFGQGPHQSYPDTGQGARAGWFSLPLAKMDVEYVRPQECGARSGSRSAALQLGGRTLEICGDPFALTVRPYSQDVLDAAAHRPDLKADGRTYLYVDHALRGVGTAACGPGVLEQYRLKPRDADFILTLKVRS
Nature of the test: hydrolysis in crystal, product seen by X-ray. In kind it is biochemical. As to conditions: crystal soaked 1 min.

Test [2] addresses T1, ArthβDG. The test is described as follows: hydrolysis in crystal, blue coloration. In kind it is biochemical. The conditions noted are these: 3 to 20 molar excess; blue within 3 min; galactose found in the structure.
The target of test [3] is ArthβDG_E441Q mutein (β-D-galactosidase from Arthrobacter sp. 32cB, E441Q) (Arthrobacter sp. 32cB). Nature of the test: crystal structure; crystals grown in 25–45% Tacsimate, pH 6.0–8.0, seeded; space group P3121, one protein monomer in the asymmetric unit; dimer shown in Figure 2.

Consider `OC[C@H]1O[C@@H](O[C@H]2[C@H](O)[C@@H](O)C(O)O[C@@H]2CO)[C@H](O)[C@@H](O)[C@H]1O` (stereo partly drawn) [LAC, lactose], for which the “hydrolysis in crystal, product seen by X-ray” value in test [1] is given as “the active enzyme performed hydrolysis of lactose in crystal”.

For `OC[C@H]1O[C@@H](Oc2c[nH]c3ccc(Br)c(Cl)c23)[C@H](O)[C@@H](O)[C@H]1O` [X-gal, 5-bromo-4-chloro-3-indolyl-β-D-galactopyranoside], in test [2], the “hydrolysis in crystal, blue coloration” value is “the enzyme in the crystal was in its active form and performed hydrolysis of X-gal”.

The molecule “ArthβDG_E441Q mutein (β-D-galactosidase from Arthrobacter sp. 32cB, E441Q) (enzyme)” yielded a stoichiometry N in test [3] of 2.
